Here are results for one molecule from PMC6637423 (Organic & biomolecular chemistry, 2019).

Series [1] concerns C57BL/6J mice. Kind of series: 55°C warm-water tail-withdrawal assay after i.c.v. administration. It counts as in vivo, mouse. To be noted: 1 nmol i.c.v., summed over 90 min.
The subject of series [2] is C57BL/6J mice. In words: 55°C warm-water tail-withdrawal assay after oral. The class given is in vivo, mouse. To be noted: morphine 5 mg/kg, p.o.
Series [3] has as its system C57BL/6J mice. In words: Respiration rate, Oxymax/CLAMS assay. To be noted: morphine 30 mg/kg, i.p., positive control.

With `CN1CC[C@]23c4c5ccc(O)c4O[C@H]2[C@@H](O)C=C[C@H]3[C@H]1C5` [Morphine], the “Screening: summed tail-withdrawal latency versus vehicle” value in the series with C57BL/6J mice [1] is “withdrawal latencies equivalent to vehicle treated animals”. In addition, in the series with C57BL/6J mice [2], the “Antinociception after oral administration versus vehicle” value is on record as “significantly higher antinociceptive effects compared to vehicle treated animals”. The “Respiratory effect versus vehicle” value in the series on C57BL/6J mice [3] is given as “suppressed respiration up to an hour”.
